Reference: patent publication US12097215B2, “Antibacterial composition and its use in treating bacterial infections” (Vector Vitale IP LLC, priority 2017, dated 2024)
Marks after values point to notes of the source that are not given here.

Key:
S. aureus ATCC 25923 [1] = assay: MBC by plating tube contents on Mueller-Hinton medium; type: cell-based
Method: (§1) To evaluate the bactericidal action of the antibacterial composition based on light isotope ^64Zne the minimum bactericidal concentration (MBC) was determined by plating out 0.1 ml of the contents of each tube containing the antibacterial composition on Mueller-Hinton medium. The incubation was at 37° C. for 24 h.
(§2) The MBC of the test samples was determined as the lowest concentration at which there was no growth on Mueller-Hinton agar medium.

P. aeruginosa ATCC 27853 [2] = assay: as above; type: cell-based
Method: as §1, §2

E. coli ATCC 25922 [3] = assay: as above; type: cell-based
Method: as §1, §2

P. aeruginosa ATCC 27853 [4] = assay: MIC by serial dilutions in broth (visible growth)
Method: (§3) The minimum inhibitory concentration (MIC) and minimum bactericidal concentration (MBC) of the antibacterial composition enriched for the light isotope zinc ^64Zne was evaluated in the experiment. […] S. aureus ATCC 25923, E. coli ATCC 25922 and P. aeruginosa ATCC 27853 were used as test cultures.
(§4) The studies were carried out using the method of serial dilutions in broth. To determine sensitivity of microorganisms to the antibacterial composition, 0.5 ml of broth was placed into each tube. The number of tubes was determined based on the desired number of dilutions and was increased by one for the “negative” control (no test composition). Series of two-fold serial dilutions of the test variants of the antibacterial composition were used and concentrations ranging from 450 mcg ^64Zne/ml to 0.000107 mcg ^64Zne/ml were obtained.
(§5) Reference test strains of S. aureus ATCC 25923, E. coli ATCC 25922 and P. aeruginosa ATCC 27853 were incubated in Mueller-Hinton liquid broth at 37° C. for 24 hours. Standard bacterial suspension equivalent to 0.5 McFarland standard diluted 100-fold with the broth was used for the inoculation of the tubes after which the concentration of microorganism in it was approximately 10^6 CFU/ml.
(§6) 0.5 ml of inoculum was added to each tube containing 0.5 ml of the appropriate dilution of a solution of the ^64Zn-enriched salt of interest. […] The final concentration of the microorganism in each tube was approximately 5×10^5 CFU/ml.
(§7) The tubes were incubated at 35° C. in air for 16-20 or 20-24 hours (depending on the bacterial strain).
(§8) To determine the presence of microorganism growth the test tubes with inoculum were viewed under transmitted light. Transmitted light was measured by spectrophotometry. The growth of culture in the presence of antibacterial compositions based on ^64Zne was compared with the reference test tube (“negative” control), containing the original inoculum and stored in the refrigerator. The MIC was determined as the lowest concentration of ^64Zne that inhibits visible growth of the microorganism. Both gram-positive (S. aureus) and gram-negative bacteria (P. aeruginosa, E. coli) were used in the experiments described below.
(§9) That is, ^64Zne in the form of a salt was compared with a composition that contains zinc with a natural distribution of isotopes. […] Relevant samples containing salt of natural zinc with EDDA and natural zinc sulfate were used for the comparison.
(§10) The following commercial antibacterial medications were used for the study: azithromycin and ceftriaxone and norfloxacin. The initial concentration of 3000 mcg/ml was used for the samples of all the above compounds. […] Serial dilutions of the above antibacterial compounds were also prepared in the same way as for the antibacterial composition of the invention. The same pathogenic strains of S. aureus ATCC 25923, E. coli ATCC 25922, P. aeruginosa ATCC 27853 were used for the study.

E. coli ATCC 25922 [5] = assay: MIC by serial dilutions in broth (visible growth); type: cell-based;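 further: broth tubes inoculated to about 5×10^5 CFU/ml, incubated at 35 °C for 16-24 h, growth judged by transmitted light versus an untreated inoculum reference tube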
S. aureus ATCC 25923 [6] = assay: MIC by serial dilutions in broth (visible growth); type: cell-based;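 further: broth tubes inoculated at about 5×10^5 CFU/ml, incubated 16-24 h at 35 °C in air, growth judged by transmitted light against an unexposed refrigerated inoculum tube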
Method: as §3, §4, §5, §6, §7, §8, §9, §10

[7] = Table 7, ^64Zne vs natural zinc
[8] = Table 8, ^64Zne vs natural zinc
[9] = concentration of ^64Zne, Tables 1-5

NC(CC(=O)[O-])C(=O)[O-].[64Zn+2] (racemic) [^64Zne aspartate]
MBC (S. aureus ATCC 25923 [1]; Table 6): 0.023* mcg ^64Zne/ml | MBC (P. aeruginosa ATCC 27853 [2]; Table 6): >750 mcg ^64Zne/ml | MBC (E. coli ATCC 25922 [3]; Table 6): 0.73* mcg ^64Zne/ml

O=S(=O)([O-])[O-].[Zn+2] [Natural zinc - sulfate, natural zinc sulfate, reference compound]
MIC (P. aeruginosa ATCC 27853 [4]; [7]): 750 zinc/ml | MIC (E. coli ATCC 25922 [5]; [7]): 187.5 zinc/ml | MIC (S. aureus ATCC 25923 [6]; [7]): 93.75 zinc/ml | MBC (S. aureus ATCC 25923 [1]; [8]): >750 mcg zinc/ml | MBC (P. aeruginosa ATCC 27853 [2]; [8]): >750 mcg zinc/ml | MBC (E. coli ATCC 25922 [3]; [8]): >750 mcg zinc/ml

O=C([O-])CC(NCCNC(CC(=O)O)C(=O)O)C(=O)[O-].[64Zn+2] (stereo not drawn) [^64Zne EDDS, ^64Zne salt of ethylenediamine-N,N′-disuccinic acid, chemical name 2-[2-[[(1)-1-carboxy-2-carboxylatoethyl]amino]ethylamino]butanedioate]
bacteriostatic activity (in words) (P. aeruginosa ATCC 27853 [4]): best results | MIC (P. aeruginosa ATCC 27853 [4]; [7]): 5.86 zinc/ml | MIC (P. aeruginosa ATCC 27853 [4]; [9]): 1.465 µg/mL | MIC (E. coli ATCC 25922 [5]; [7]): 0.18 zinc/ml | visible growth (E. coli ATCC 25922 [5]; ^64Zne 0.00036 mcg/ml): + | visible growth (E. coli ATCC 25922 [5]; ^64Zne 0.00072 mcg/ml): + | visible growth (E. coli ATCC 25922 [5]; ^64Zne 0.0014 mcg/ml): + | visible growth (E. coli ATCC 25922 [5]; ^64Zne 0.0029 mcg/ml): + | visible growth (E. coli ATCC 25922 [5]; ^64Zne 0.0057 mcg/ml): + | visible growth (E. coli ATCC 25922 [5]; ^64Zne 0.011 mcg/ml): + | visible growth (E. coli ATCC 25922 [5]; ^64Zne 0.023 mcg/ml): − | visible growth (E. coli ATCC 25922 [5]; ^64Zne 0.046 mcg/ml): − | visible growth (E. coli ATCC 25922 [5]; ^64Zne 0.092 mcg/ml): − | visible growth (E. coli ATCC 25922 [5]; ^64Zne 0.18 mcg/ml): − | visible growth (E. coli ATCC 25922 [5]; ^64Zne 0.37 mcg/ml): − | visible growth (E. coli ATCC 25922 [5]; ^64Zne 0.73 mcg/ml): − | visible growth (E. coli ATCC 25922 [5]; ^64Zne 1.46 mcg/ml): − | visible growth (E. coli ATCC 25922 [5]; ^64Zne 2.93 mcg/ml): − | visible growth (E. coli ATCC 25922 [5]; ^64Zne 5.86 mcg/ml): − | visible growth (E. coli ATCC 25922 [5]; ^64Zne 11.72 mcg/ml): − | visible growth (E. coli ATCC 25922 [5]; ^64Zne 23.44 mcg/ml): − | visible growth (E. coli ATCC 25922 [5]; ^64Zne 46.88 mcg/ml): − | visible growth (E. coli ATCC 25922 [5]; ^64Zne 93.75 mcg/ml): − | visible growth (E. coli ATCC 25922 [5]; ^64Zne 187.5 mcg/ml): − | visible growth (E. coli ATCC 25922 [5]; ^64Zne 375 mcg/ml): − | visible growth (E. coli ATCC 25922 [5]; ^64Zne 750 mcg/ml): − | visible growth (E. coli ATCC 25922 [5]; ^64Zne 1500 mcg/ml): − | MIC (E. coli ATCC 25922 [5]; [9]): 0.0229 µg/mL | MIC (S. aureus ATCC 25923 [6]; [7]): 0.73 zinc/ml | visible growth (S. aureus ATCC 25923 [6]; ^64Zne 0.00036 mcg/ml): + | visible growth (S. aureus ATCC 25923 [6]; ^64Zne 0.00072 mcg/ml): + | visible growth (S. aureus ATCC 25923 [6]; ^64Zne 0.0014 mcg/ml): + | visible growth (S. aureus ATCC 25923 [6]; ^64Zne 0.0029 mcg/ml): + | visible growth (S. aureus ATCC 25923 [6]; ^64Zne 0.0057 mcg/ml): + | visible growth (S. aureus ATCC 25923 [6]; ^64Zne 0.011 mcg/ml): + | visible growth (S. aureus ATCC 25923 [6]; ^64Zne 0.023 mcg/ml): + | visible growth (S. aureus ATCC 25923 [6]; ^64Zne 0.046 mcg/ml): + | visible growth (S. aureus ATCC 25923 [6]; ^64Zne 0.37 mcg/ml): − | visible growth (S. aureus ATCC 25923 [6]; ^64Zne 0.73 mcg/ml): − | visible growth (S. aureus ATCC 25923 [6]; ^64Zne 1.46 mcg/ml): − | visible growth (S. aureus ATCC 25923 [6]; ^64Zne 2.93 mcg/ml): − | visible growth (S. aureus ATCC 25923 [6]; ^64Zne 5.86 mcg/ml): − | visible growth (S. aureus ATCC 25923 [6]; ^64Zne 11.72 mcg/ml): − | visible growth (S. aureus ATCC 25923 [6]; ^64Zne 23.44 mcg/ml): − | visible growth (S. aureus ATCC 25923 [6]; ^64Zne 46.88 mcg/ml): − | visible growth (S. aureus ATCC 25923 [6]; ^64Zne 93.75 mcg/ml): − | visible growth (S. aureus ATCC 25923 [6]; ^64Zne 187.5 mcg/ml): − | visible growth (S. aureus ATCC 25923 [6]; ^64Zne 375 mcg/ml): − | visible growth (S. aureus ATCC 25923 [6]; ^64Zne 750 mcg/ml): − | MIC (S. aureus ATCC 25923 [6]; [9]): 0.366 µg/mL | MBC (S. aureus ATCC 25923 [1]; Table 6): 0.73* mcg ^64Zne/ml | MBC (S. aureus ATCC 25923 [1]; [8]): 0.7324 mcg zinc/ml | bactericidal activity (in words) (P. aeruginosa ATCC 27853 [2]): satisfactory bactericidal activity | MBC (P. aeruginosa ATCC 27853 [2]; Table 6): 375 mcg ^64Zne/ml | MBC (P. aeruginosa ATCC 27853 [2]; [8]): 375 mcg zinc/ml | MBC (E. coli ATCC 25922 [3]; Table 6): 2.93* mcg ^64Zne/ml | MBC (E. coli ATCC 25922 [3]; [8]): 2.9296 mcg zinc/ml
